# Patent publication US20140309221A1, “METHOD OF INHIBITING HAMARTOMA TUMOR CELLS” (DANA-FARBER CANCER INSTITUTE, INC., priority 2011, published 2014)
# Entries after “also recorded” stand apart in the source; their conditions may differ.
# Columns and labels:
# [1] = system: PHTS symptoms in K14-cre-Pten f/f mice; assay: Early administration: prevention of PHTS symptom development in K14-cre-Pten f/f mice; type: in vivo; conditions: 25 mg/kg daily by oral gavage beginning at 3 weeks of age
# Description: (§1) 4-(Trifluoromethyl)-5-(2,6-dimorpholinopyrimidin-4-yl)pyridin-2-amine powder was dissolved in 1 volume of NMP (1-methyl-2-pyrrolidone). After dissolution (if needed, in warm water), add 9 volumes of PEG300. The final ratio is: NMP 10%/PEG300 90%.
# Pten f/f mice (Lesche, R., et al., Cre/loxP-mediated inactivation of the murine Pten tumor suppressor gene. Genesis, 2002. 32(2): 148-9) were crossed with K14-cre mice (Jonkers, J., et al., Synergistic tumor suppressor activity of BRCA2 and p53 in a conditional mouse model for breast cancer. Nat Genet, 2001. 29(4): 418-25) to generate K14-Cre Pten f/f mice in which the floxed Pten allele is deleted specifically in the keratinocytes by the K14-driven Cre recombinase. […]
# K14-cre-Pten f/f mice were treated daily with 25 mg/kg 4-(trifluoromethyl)-5-(2,6-dimorpholinopyrimidin-4-yl)pyridin-2-amine by oral gavage beginning at 3 weeks of age and the development of PHTS symptoms monitored. […]
# [2] = system: PHTS symptoms in K14-cre-Pten f/f mice; assay: Administration to K14-cre-Pten f/f mice with fully developed PHTS: relief of symptoms; type: in vivo
# Description: as §1
# Pten f/f mice (Lesche, R., et al., Cre/loxP-mediated inactivation of the murine Pten tumor suppressor gene. Genesis, 2002. 32(2): 148-9) were crossed with K14-cre mice (Jonkers, J., et al., Synergistic tumor suppressor activity of BRCA2 and p53 in a conditional mouse model for breast cancer. Nat Genet, 2001. 29(4): 418-25) to generate K14-Cre Pten f/f mice in which the floxed Pten allele is deleted specifically in the keratinocytes by the K14-driven Cre recombinase. These mice were further crossed with p110a f/f (Zhao, J. J., et al., The p110 alpha isoform of PI3K is essential for proper growth factor signaling and oncogenic transformation. Proc Natl Acad Sci USA, 2006. 103(44): 16296-300) and p110b f/f mice (Jia, S., et al., Essential roles of PI(3)K-p110beta in cell growth, metabolism and tumorigenesis. Nature, 2008) to generate K14-cre Pten f/f, K14-cre Pten f/f; p110a f/f, K14-cre Pten f/f; p110b f/f, and K14-cre-Pten f/f; p110a f/f; p110b f/f mice. Keratinocyte-specific deletion of Pten results in multiple dermal lesions in the K14-cre Ptenf/f mice that resemble multiple skin hamartomas of PHTS. […]
structure (smiles),measurement,setting,value
"Nc1cc(C(F)(F)F)c(-c2cc(N3CCOCC3)nc(N3CCOCC3)n2)cn1 [COMPOUND A, 4-(trifluoromethyl)-5-(2,6-dimorpholinopyrimidin-4-yl)pyridin-2-amine]",development of PHTS symptoms (PHTS free survival),[1]; n=12,remained free of PHTS symptoms
same,development of PHTS symptoms (PHTS free survival),"[1]; n=12, listed as 4-(trifluoromethyl)-5-(2,6-dimorpholinopyrimidin-4-yl)pyridin-2-amine",remained free of PHTS symptoms; also recorded: entirely blocked appearance of PHTS
same,relief of PHTS symptoms,"[2]; K14-cre-Pten f/f mice with fully developed PHTS (12-14 weeks of age), 45 mg/kg daily by oral gavage for 4 weeks, 45 mg/kg",dramatically relieved the PHTS symptoms; also recorded: completely reversed the phenotype of PHST
same,PHTS symptoms at the end of the 4-week treatment,"[2]; K14-cre-Pten f/f mice with fully developed PHTS, 45 mg/kg daily by oral gavage, end of 4 weeks",substantially or completely reduced
